What follows are compounds tested against T1, IL-17A/A (Homo sapiens, UniProt Q16552) (assay: IL-17A/A HEK-Blue cell assay). Conditions: HEK-Blue IL-17A reporter cell line (HEK 293), IL-17A/A stimulation, 20 hours incubation, SEAP read at A630.
T1 construct: purchased Genscript Z03228
T1 sequence (Q16552 24-155): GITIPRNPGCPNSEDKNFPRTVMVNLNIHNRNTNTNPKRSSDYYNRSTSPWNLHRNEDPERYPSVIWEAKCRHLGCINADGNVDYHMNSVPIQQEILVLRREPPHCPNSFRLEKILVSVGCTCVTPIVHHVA
Assay type: cell-based
Description: The HEK-Blue IL-17A reporter cell line (Fisher #NC1408637) was used for cell-based IL-17A/A inhibition assays. Cells were grown and prepared for assays according to the manufacturer's instructions. This cell line consists of HEK 293 cells that were designed to expressed IL-17RA, IL-17RC, and the ActI adapter molecule, the combination of which, when stimulated by IL-17A/A activates a NFκB promoter and drives expression of a recombinant Secreted Alkaline Phosphatase (SEAP) gene protein. Media from the cells is then added to a development reagent (Quanti-Blue Substrate, Fisher #NC9711613), and read at A630.
Compounds were titrated in DMSO, with a top final compound concentration of 10 uM, 1 uM, or 0.3 uM, and added to the cells immediately before adding IL-17A/A (Genscript #Z03228). The cells, compound, and IL-17A/A were then incubated for 20 hours before media was removed for SEAP analysis. The resulting inhibition curve was then analyzed using Graphpad Prism 7.0, and IC50 values were determined using a 4-parameter nonlinear fit. DMSO was added to a universal final concentration of 0.1% to optimize background.

| Structure (SMILES) | IC50 [µM] |
| --- | --- |
| CCn1nccc1C(=O)NC(c1cn2nc(CC3CC(C)CNC3=O)ccc2n1)C1CCC(C)CC1 (single isomer, unassigned) [Compound 51] | 0.1 to 1 |
| CCn1nccc1C(=O)N[C@H](c1cn2nc(CC3C(=O)NCCC3C)ccc2n1)[C@H]1CC[C@H](C)CC1 (single isomer, unassigned) [Compound 52] | > 1 |
| CCn1nccc1C(=O)N[C@H](c1cn2nc(CC3C(=O)NCCC3C)ccc2n1)[C@H]1CC[C@H](C)CC1 (single isomer, unassigned) [Compound 53] | 0.1 to 1 |
| CCn1nccc1C(=O)N[C@H](c1cn2nc(CC3C(=O)NCCC3C)ccc2n1)[C@H]1CC[C@H](C)CC1 (single isomer, unassigned) [Compound 54] | 0.1 to 1 |
| CCn1nccc1C(=O)N[C@H](c1cn2nc(C(C)C3C[C@@H](C(F)(F)F)CNC3=O)ccc2n1)C(C1CC1)C1CC1 (single isomer, unassigned) [Compound 55] | 0.1 to 1 |
| CCn1nccc1C(=O)N[C@H](c1cn2nc(C(C)C3C[C@@H](C(F)(F)F)CNC3=O)ccc2n1)C(C1CC1)C1CC1 (single isomer, unassigned) [Compound 56] | > 1 |
| CCn1nccc1C(=O)N[C@H](c1cn2nc(C(C)C3C[C@@H](C(F)(F)F)CNC3=O)ccc2n1)C(C1CC1)C1CC1 (single isomer, unassigned) [Compound 57] | > 1 |
| CCn1nccc1C(=O)N[C@H](c1cn2nc(C(COC)C3C[C@@H](C(F)(F)F)CNC3=O)ccc2n1)C(C1CC1)C1CC1 (single isomer, unassigned) [Compound 62] | 0.1 to 1 |
| CCn1nccc1C(=O)N[C@H](c1cn2nc(CC3C[C@@H](C)NC3=O)ccc2n1)[C@H]1CC[C@H](C)CC1 (single isomer, unassigned) [Compound 63] | 0.1 to 1 |
| CCn1nccc1C(=O)N[C@H](c1cn2nc(CC3CC4(CC4)CNC3=O)ccc2n1)[C@H]1CC[C@H](C)CC1 (single isomer, unassigned) [Compound 64] | 0.1 to 1 |
| CCn1nccc1C(=O)N[C@H](c1cn2nc(CC3CC(CC(F)(F)F)CNC3=O)ccc2n1)C1CCC(F)(F)CC1 (single isomer, unassigned) [Compound 65] | 0.1 to 1 |
| CCn1nccc1C(=O)N[C@H](c1cn2nc(CC3CC(CC(F)(F)F)CNC3=O)ccc2n1)C1CCC(F)(F)CC1 (single isomer, unassigned) [Compound 66] | 0.1 to 1 |
| CCn1nccc1C(=O)N[C@H](c1cn2nc(CC3(C)C[C@@H](C(F)(F)F)CNC3=O)ccc2n1)[C@H]1CC[C@H](C)CC1 (single isomer, unassigned) [Compound 67] | 0.1 to 1 |
| CCn1nccc1C(=O)N[C@H](c1cn2nc(CC3CC(C(C)(F)F)NC3=O)ccc2n1)C1CCC(F)(F)CC1 (single isomer, unassigned) [Compound 68] | > 1 |

Second part, the compound after the results:

| IC50 [µM] | Structure (SMILES) |
| --- | --- |
| 0.1 to 1 | CCn1nccc1C(=O)N[C@H](c1cn2nc(CC3CC(C(C)(F)F)NC3=O)ccc2n1)C1CCC(F)(F)CC1 (single isomer, unassigned) [Compound 69] |
| 0.1 to 1 | CCn1nccc1C(=O)N[C@H](c1cn2nc(CC3CC(C4CC4)CNC3=O)ccc2n1)C1CCC(F)(F)CC1 (single isomer, unassigned) [Compound 70] |
| 0.1 to 1 | CCn1nccc1C(=O)N[C@H](c1cn2nc(CC3CC(C4CC4)CNC3=O)ccc2n1)C1CCC(F)(F)CC1 (single isomer, unassigned) [Compound 71] |
| 0.1 to 1 | CCn1nccc1C(=O)N[C@H](c1cn2nc(CC3CC(F)(F)CNC3=O)c(NC)cc2n1)C1CCC(F)(F)CC1 (single isomer, unassigned) [Compound 73] |
| > 1 | CCn1nccc1C(=O)N[C@H](c1cn2nc(CC3CC(F)(F)CNC3=O)c(NC)cc2n1)C1CCC(F)(F)CC1 (single isomer, unassigned) [Compound 74] |
| 0.1 to 1 | CCn1nccc1C(=O)N[C@H](c1cn2nc(CC3CC(F)(F)CNC3=O)c(C)cc2n1)C1CCC(F)(F)CC1 (single isomer, unassigned) [Compound 76] |
